Source: article PMC4601023, “Novel anticancer agent, SQAP, binds to focal adhesion kinase and modulates its activity” (Scientific Reports, 2015)

Assays:
HUVEC cells = experiment: Wound healing assay, HUVEC; type: cell-based, human; conditions: 11 h, 1% FBS and VEGF 50 ng/mL, control 32%
Method: (§1) Figure 6 SQAP inhibits cell migration in vitro. (A) HUVEC cells were seeded and grown to 100% confluence in 60-mm diameter dishes. After generating a single scratch in the monolayer, the cells were cultured for 11 h in medium containing 1% FBS and VEGF (50 ng/mL) in the presence or absence of SQAP. Photographs were taken immediately after 11 h. (B) The change in wound width was measured as described in the Materials and Methods. (C) A549 cells were seeded and grown to 100% confluence in 60-mm diameter dishes. After generating a single scratch in the monolayer, the cells cultured for the 25 h in media containing 1% FBS and fibronectin (10 μg/ml) treated with SQAP or vehicle. Photographs were collected immediately after wounding and after 25 h. (D) The change in wound width was measured as described in the Materials and Methods. Cell migration was additionally examined in 96 well plates. HUVEC (E) and A549 cells (F) were seeded and grown into confluence overnight. After removing the stoppers, the live cells were stained with CellTracker^TM Green and incubated for the indicated time. The fluorescent emission signal was obtained with a plate reader. […]
(§2) Wound healing assay was analyzed by microscope imaging. […] Wound diameters in the images were measured and percentage of wound size was calculated as follows: [wound diameter at 11 or 25 h/wound diameter at 0 h] x 100.

A549 cells = experiment: Wound healing assay, A549; type: cell-based, human; conditions: A549, 25 h, 1% FBS and fibronectin 10 μg/mL; control 46%
Method: as §1, §2

## CCCCCCCCCCCCCCCCCC(=O)OCCCO[C@H]1O[C@H](CS(=O)(=O)O)[C@@H](O)[C@H](O)[C@H]1O [SQAP, sulfoquynovosylacylpropanediol]
HUVEC cells
  wound size: 62%
A549 cells
  wound size: 68%
